The values below are quoted from earlier work in patent US20080314115A1, “Compliance Apparatus” (Zenics Limited, priority 2005, published 2008).

The conditions of this series: after disulfiram dose.

Molecules are shown by their SMILES.

With `S=C=S` [carbon disulphide], the breath elimination half-life is 13.3 h.
